Measurements reported in ChEMBL document CHEMBL1155823, “The effect of 5-alkyl modification on the biological activity of pyrrolo[2,3-d]pyrimidine containing classical and nonclassical antifolates as inhibitors of dihydrofolate reductase and as antitumor and/or antiopportunistic infection agents” (J Med Chem, 2008).

What was measured:
Thymidylate synthase [1] = biological target: T1, Thymidylate synthase (Homo sapiens, UniProt P04818); experiment: Inhibition of human thymidylate synthase
Target sequence in this assay (P04818 whole entry): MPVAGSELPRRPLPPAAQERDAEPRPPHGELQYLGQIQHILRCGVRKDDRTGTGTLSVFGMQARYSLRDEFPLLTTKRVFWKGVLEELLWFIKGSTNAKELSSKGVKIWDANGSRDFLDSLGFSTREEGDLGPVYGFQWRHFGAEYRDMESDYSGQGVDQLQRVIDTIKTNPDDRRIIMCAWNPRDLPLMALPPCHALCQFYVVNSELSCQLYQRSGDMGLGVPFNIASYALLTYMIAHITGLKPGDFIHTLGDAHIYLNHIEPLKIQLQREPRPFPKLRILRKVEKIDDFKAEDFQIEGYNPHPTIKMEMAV

Thymidylate synthase [2] = biological target: T1, Thymidylate synthase; experiment: Inhibition of human thymidylate synthase at >23 uM
Target sequence in this assay (P04818 2-313 limits assumed): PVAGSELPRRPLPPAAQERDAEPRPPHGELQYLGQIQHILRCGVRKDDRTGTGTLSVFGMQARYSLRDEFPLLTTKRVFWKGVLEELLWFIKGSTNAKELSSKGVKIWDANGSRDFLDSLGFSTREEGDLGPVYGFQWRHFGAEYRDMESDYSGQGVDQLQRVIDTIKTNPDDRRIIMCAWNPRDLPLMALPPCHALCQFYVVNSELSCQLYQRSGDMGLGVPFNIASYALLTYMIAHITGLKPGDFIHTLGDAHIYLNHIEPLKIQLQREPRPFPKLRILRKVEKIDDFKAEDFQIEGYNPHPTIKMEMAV

Thymidylate synthase [3] = biological target: Thymidylate synthase (Escherichia coli, UniProt C3SWJ7); experiment: Inhibition of Escherichia coli thymidylate synthase
[4] = biological target: Thymidylate synthase (Escherichia coli) (UniProt C3SWJ7); experiment: Inhibition of Escherichia coli thymidylate synthase at >[…] uM
[5] = biological target: T2, Bifunctional dihydrofolate reductase-thymidylate synthase (Toxoplasma gondii, UniProt Q07422); experiment: Inhibition of Toxoplasma gondii thymidylate synthase
T2 sequence (Q07422 whole entry): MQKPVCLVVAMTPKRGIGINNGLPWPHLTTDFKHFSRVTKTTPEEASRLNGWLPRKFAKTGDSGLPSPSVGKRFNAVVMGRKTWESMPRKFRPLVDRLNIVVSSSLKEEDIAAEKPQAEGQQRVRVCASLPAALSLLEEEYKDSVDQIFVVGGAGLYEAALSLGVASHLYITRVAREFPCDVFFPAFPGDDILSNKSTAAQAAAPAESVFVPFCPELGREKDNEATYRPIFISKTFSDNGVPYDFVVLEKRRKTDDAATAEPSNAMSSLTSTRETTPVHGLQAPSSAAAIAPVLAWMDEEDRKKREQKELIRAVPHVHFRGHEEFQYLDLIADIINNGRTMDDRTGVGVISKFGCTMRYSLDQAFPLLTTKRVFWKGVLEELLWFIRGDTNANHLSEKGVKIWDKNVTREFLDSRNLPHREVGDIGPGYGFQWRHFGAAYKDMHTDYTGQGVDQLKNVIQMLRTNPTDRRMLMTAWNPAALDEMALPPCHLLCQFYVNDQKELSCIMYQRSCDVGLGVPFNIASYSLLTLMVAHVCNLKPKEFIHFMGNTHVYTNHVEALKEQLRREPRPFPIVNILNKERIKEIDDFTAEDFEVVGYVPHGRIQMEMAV

[6] = biological target: T3, Bifunctional dihydrofolate reductase-thymidylate synthase (Toxoplasma gondii) (UniProt Q07422); experiment: Inhibition of Toxoplasma gondii thymidylate synthase at >[…] uM
T3 sequence (whole entry): T2 sequence (Q07422 whole entry)

[7] = biological target: T4, Dihydrofolate reductase (Homo sapiens) (UniProt P00374); experiment: Inhibition of human dihydrofolate reductase at >28 uM
T4 sequence (whole entry): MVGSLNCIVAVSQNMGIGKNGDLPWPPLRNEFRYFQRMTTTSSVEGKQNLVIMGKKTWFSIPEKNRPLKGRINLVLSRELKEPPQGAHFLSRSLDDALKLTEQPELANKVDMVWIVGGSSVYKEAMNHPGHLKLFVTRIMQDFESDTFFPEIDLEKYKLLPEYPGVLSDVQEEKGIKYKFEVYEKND

[8] = biological target: T2, Bifunctional dihydrofolate reductase-thymidylate synthase; experiment: Inhibition of Toxoplasma gondii dihydrofolate reductase
Dihydrofolate reductase [9] = biological target: T5, Dihydrofolate reductase (Homo sapiens, UniProt P00374)
T5 sequence (P00374 whole entry): T4 sequence (whole entry)

Dihydrofolate reductase [10] = biological target: T6, Dihydrofolate reductase (Pneumocystis carinii, UniProt P16184)
T6 sequence (P16184 whole entry): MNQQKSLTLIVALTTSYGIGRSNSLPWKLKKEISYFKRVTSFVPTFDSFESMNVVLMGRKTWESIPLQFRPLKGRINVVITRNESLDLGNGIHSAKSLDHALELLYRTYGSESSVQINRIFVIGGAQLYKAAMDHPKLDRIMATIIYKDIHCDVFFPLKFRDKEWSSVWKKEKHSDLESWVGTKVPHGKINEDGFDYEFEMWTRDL
Description: (§1) Inhibition of Pneumocystis carinii DHFR using dihydrofolic acid substrate and NADPH cofactor

Dihydrofolate reductase [11] = biological target: T7, Dihydrofolate reductase (Rattus norvegicus, UniProt Q920D2)
T7 sequence (Q920D2 whole entry): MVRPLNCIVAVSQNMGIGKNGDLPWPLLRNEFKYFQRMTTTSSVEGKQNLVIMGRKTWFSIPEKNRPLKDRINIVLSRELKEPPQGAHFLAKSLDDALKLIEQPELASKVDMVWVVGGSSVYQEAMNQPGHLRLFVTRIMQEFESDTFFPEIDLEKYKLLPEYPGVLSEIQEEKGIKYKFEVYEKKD

Thymidylate synthase [12] = biological target: T1, Thymidylate synthase; experiment: Inhibition of human thymidylate synthase at >14 uM
Target sequence in this assay (P04818 2-313 limits assumed): as the sequence (P04818 2-313 limits assumed) above

[13] = biological target: Thymidylate synthase (Escherichia coli) (UniProt C3SWJ7); experiment: Inhibition of Escherichia coli thymidylate synthase at >14 uM
Thymidylate synthase [14] = biological target: T1, Thymidylate synthase; experiment: Inhibition of human thymidylate synthase at >[…] uM
Target sequence in this assay (P04818 2-313 limits assumed): as the sequence (P04818 2-313 limits assumed) above

[15] = biological target: T4, Dihydrofolate reductase (Homo sapiens); experiment: Inhibition of human dihydrofolate reductase at >[…] uM
Dihydrofolate reductase [16] = biological target: T6, Dihydrofolate reductase; remark: listed apart in the source
Description: as §1

Dihydrofolate reductase [17] = biological target: T7, Dihydrofolate reductase; remark: listed apart in the source

Sequence of Thymidylate synthase (Escherichia coli) (C3SWJ7 1-264): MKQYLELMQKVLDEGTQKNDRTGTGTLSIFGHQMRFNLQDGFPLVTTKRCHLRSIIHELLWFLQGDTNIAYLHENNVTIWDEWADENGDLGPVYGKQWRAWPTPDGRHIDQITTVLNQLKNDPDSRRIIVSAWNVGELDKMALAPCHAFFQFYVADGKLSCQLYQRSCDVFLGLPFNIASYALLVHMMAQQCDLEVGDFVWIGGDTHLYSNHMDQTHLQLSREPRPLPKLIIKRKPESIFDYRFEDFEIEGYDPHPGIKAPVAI
Sequence of Thymidylate synthase (Escherichia coli, UniProt C3SWJ7) (C3SWJ7 whole entry): as the sequence (C3SWJ7 1-264) above

Structure (SMILES) | IC50 (Thymidylate synthase [1]) | inhibition (Thymidylate synthase [2]) | IC50 (Thymidylate synthase [3]) | inhibition [4] | IC50 [5] | inhibition [6] | inhibition [7] | IC50 [8] | IC50 (Dihydrofolate reductase [9]) | IC50 (Dihydrofolate reductase [10]) | IC50 (Dihydrofolate reductase [11]) | inhibition (Thymidylate synthase [12]) | inhibition [13] | inhibition (Thymidylate synthase [14]) | inhibition [15] | IC50 (Dihydrofolate reductase [16]) | IC50 (Dihydrofolate reductase [17])
COc1ccc(OC)c(Sc2[nH]c3nc(N)nc(N)c3c2C(C)C)c1 | > 23 µM | 0% | > 2.3 µM | 0% | > 2.3 µM | 0% | 0% | 1.4 µM | > 28 µM | 35.6 µM | 50.3 µM | – | – | – | – | – | –
CCCc1c(Sc2ccccc2)[nH]c2nc(N)nc(N)c12 | > 14 µM | – | > 14 µM | – | > 1.4 µM | – | – | 0.12 µM | 33 µM | 4.21 µM | – | 0% | 0% | – | – | – | –
CCCc1c(Sc2ccc(OC)c(OC)c2)[nH]c2nc(N)nc(N)c12 | > 11 µM | – | > 11 µM | 0% | > 11 µM | – | – | 1 µM | > 26 µM | 8.45 µM | 3.45 µM | – | – | 0% | 35% | – | –
CC(C)c1c(Sc2ccc3ccccc3c2)[nH]c2nc(N)nc(N)c12 | > 24 µM | – | > 2.4 µM | 0% | > 2.4 µM | – | – | 1.5 µM | > 29 µM | 7.1 µM | 2.1 µM | – | – | 39% | – | – | –
COc1ccc(Sc2[nH]c3nc(N)nc(N)c3c2C(C)C)cc1 | > 25 µM | – | > 2.5 µM | 0% | > 2.5 µM | – | – | 0.6 µM | 30 µM | – | 1.9 µM | – | – | – | – | – | –
CCc1c(Sc2cc(OC)ccc2OC)[nH]c2nc(N)nc(N)c12 | – | – | – | – | – | – | – | – | – | – | – | – | – | – | – | 6.04 µM | 4.05 µM
CCCc1c(Sc2cc(OC)ccc2OC)[nH]c2nc(N)nc(N)c12 | – | – | > 12 µM | – | – | 0% | 13% | – | > 28 µM | 10.4 µM | 8.9 µM | – | – | 0% | – | – | –
CCc1c(Sc2ccccc2)[nH]c2nc(N)nc(N)c12 | – | – | – | – | – | – | – | – | – | – | – | – | – | – | – | 21.8 µM | 5.6 µM
COc1ccc(OC)c(Cc2sc3nc(N)nc(N)c3c2C)c1 | – | – | – | – | – | – | – | 0.07 µM | – | – | – | – | – | – | – | – | –
CCCc1c(Sc2cccc3ccccc23)[nH]c2nc(N)nc(N)c12 | > 12 µM | – | > 12 µM | – | > 12 µM | 16% | – | 0.058 µM | > 29 µM | 8.6 µM | 6.5 µM | – | – | 0% | – | – | –
CC(C)c1c(Sc2ccc(Cl)c(Cl)c2)[nH]c2nc(N)nc(N)c12 | > 23 µM | 14% | > 2.3 µM | 0% | > 2.3 µM | 0% | – | 1.4 µM | > 27 µM | 10.9 µM | 13.5 µM | – | – | – | 0% | – | –
